In paper PMC3880629 (Journal of medicinal chemistry, 2013):
Where two headings read alike, the source gives them in different places.

How the values were obtained:
CB1 wild-type receptor [1] = biological target: T1, CB1 wild-type receptor (Homo sapiens, UniProt P21554); assay type: binding; conditions: for α: binding cooperativity factor between CP55,940 and the tested allosteric modulator: HEK293 cell membranes expressing CB1, tracer [3H]CP55,940
CB1 wild-type receptor [2] = biological target: T1, CB1 wild-type receptor; conditions: cited from earlier work; for Effect on CP55,940-induced [35S]GTPγS binding in the presence of allosteric modulator: earlier report, given for comparison
CB1 wild-type receptor [3] = biological target: T1, CB1 wild-type receptor; conditions: earlier report, given for comparison; cited from earlier work
CB1 wild-type receptor [4] = biological target: T1, CB1 wild-type receptor; assay: [35S]GTPγS binding assay; assay type: biochemical; conditions: for Concentration giving complete inhibition of CP55,940-induced [35S]GTPγS binding / Effect on CP55,940-induced [35S]GTPγS binding in the presence of allosteric modulator: HEK293 cell membranes expressing CB1
[5] = Solubility in common organic solvents; assay type: physicochemical; conditions: acetone, ethyl acetate, tetrahydrofuran, dichloromethane, diethyl ether, ethanol and methanol

T1 sequence (P21554 whole entry): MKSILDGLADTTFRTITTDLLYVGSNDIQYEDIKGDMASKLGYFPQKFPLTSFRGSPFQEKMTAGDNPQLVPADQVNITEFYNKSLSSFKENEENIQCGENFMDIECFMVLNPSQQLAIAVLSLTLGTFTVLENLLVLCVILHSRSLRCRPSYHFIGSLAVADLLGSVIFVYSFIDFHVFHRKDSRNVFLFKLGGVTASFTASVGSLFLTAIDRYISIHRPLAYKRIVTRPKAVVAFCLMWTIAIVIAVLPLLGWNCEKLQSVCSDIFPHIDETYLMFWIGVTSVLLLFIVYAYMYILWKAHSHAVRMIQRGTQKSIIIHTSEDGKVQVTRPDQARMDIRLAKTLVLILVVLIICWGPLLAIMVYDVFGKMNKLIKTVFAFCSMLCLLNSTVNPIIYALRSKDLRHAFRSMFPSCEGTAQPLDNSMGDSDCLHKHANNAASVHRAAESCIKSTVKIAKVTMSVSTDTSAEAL

CN(C)c1ccc(CCNC(=O)c2cc3cc(Cl)ccc3o2)cc1 [13d, 5-Chloro-N-(4-(dimethylamino)phenethyl)benzofuran-2-carboxamide]
α: binding cooperativity factor between CP55,940 and the tested allosteric modulator (CB1 wild-type receptor [1]): 1.0

CCc1c(C(=O)NCCc2ccc(N3CCCCC3)cc2)[nH]c2ccc(Cl)cc12 [compound 1, 5-chloro-3-ethyl-N-(4-(piperidin-1-yl)phenethyl)-1H-indole-2-carboxamide, reference compound]
Concentration at which G protein coupling was inhibited (CB1 wild-type receptor [2]): 3.2 µM | Effect on CP55,940-induced [35S]GTPγS binding in the presence of allosteric modulator (CB1 wild-type receptor [2]): Antagonizing | α: binding cooperativity factor between CP55,940 and the tested allosteric modulator (CB1 wild-type receptor [3]): 6.95

CCCCCCCCCc1c(C(=O)NCCc2ccc(N3CCCCC3)cc2)[nH]c2ccc(Cl)cc12 [11f]
Concentration giving complete inhibition of CP55,940-induced [35S]GTPγS binding (CB1 wild-type receptor [4]): at least 10 μM | Effect on CP55,940-induced [35S]GTPγS binding in the presence of allosteric modulator (CB1 wild-type receptor [4]): Antagonizing | α: binding cooperativity factor between CP55,940 and the tested allosteric modulator (CB1 wild-type receptor [1]): 6.80

CCc1c(C(=O)NCCc2ccc(N(C)C)cc2)oc2ccc(Cl)cc12 [13c, 5-Chloro-N-(4-(dimethylamino)phenethyl)-3-ethylbenzofuran-2-carboxamide]
Fold increase in KB on replacing the indole ring with a benzofuran ring (CB1 wild-type receptor [1]; 13c versus 11l): 3 fold | α: binding cooperativity factor between CP55,940 and the tested allosteric modulator (CB1 wild-type receptor [1]): 11.59

O=C(NCCc1ccc(N2CCCCC2)cc1)c1cc2cc(Cl)ccc2o1 [13a, 5-Chloro-N-(4-(piperidin-1-yl)phenethyl)benzofuran-2-carboxamide]
α: binding cooperativity factor between CP55,940 and the tested allosteric modulator (CB1 wild-type receptor [1]): 1.0

CCCCCc1c(C(=O)NCCc2ccc(N3CCOCC3)cc2)[nH]c2ccc(Cl)cc12 [11h, 5-Chloro-N-(4-morpholinophenethyl)-3-pentyl-1H-indole-2-carboxamide]
Concentration giving complete inhibition of CP55,940-induced [35S]GTPγS binding (CB1 wild-type receptor [4]): at least 10 μM | Effect on CP55,940-induced [35S]GTPγS binding in the presence of allosteric modulator (CB1 wild-type receptor [4]): Antagonizing | α: binding cooperativity factor between CP55,940 and the tested allosteric modulator (CB1 wild-type receptor [1]): 10.0

CCCCCc1c(C(=O)NCCc2ccc(Oc3ccccc3)cc2)[nH]c2ccc(Cl)cc12 [11i, 5-Chloro-3-pentyl-1H-indole-2-carboxylic acid [2-(4-phenoxy-phenyl)-ethyl]-amide]
α: binding cooperativity factor between CP55,940 and the tested allosteric modulator (CB1 wild-type receptor [1]): 13.15

CCCCCc1c(C(=O)NCCc2ccc(N3CCCCC3)cc2)[nH]c2ccc(Cl)cc12 [11a, 5-Chloro-3-pentyl-N-(4-(piperidin-1-yl)phenethyl)-1H-indole-2-carboxamide]
Concentration at which G protein coupling was inhibited (CB1 wild-type receptor [2]): 3.2 µM | Effect on CP55,940-induced [35S]GTPγS binding in the presence of allosteric modulator (CB1 wild-type receptor [2]): Antagonizing | α: binding cooperativity factor between CP55,940 and the tested allosteric modulator (CB1 wild-type receptor [3]): 17.6

CCCCCc1c(C(=O)NCc2ccc(N3CCCCC3)cc2)[nH]c2ccc(Cl)cc12 [11g, 5-Chloro-3-pentyl-N-(4-(piperidin-1-yl)benzyl)-1H-indole-2-carboxamide]
α: binding cooperativity factor between CP55,940 and the tested allosteric modulator (CB1 wild-type receptor [1]): 1.0

CCCCCc1c(C(=O)NC(CO)Cc2ccc(N(C)C)cc2)[nH]c2ccc(Cl)cc12 (centres unmarked) [11k, 5-Chloro-N-(1-(4-(dimethylamino)phenyl)-3-hydroxypropan-2-yl)-3-pentyl-1H-indole-2-carboxamide]
α: binding cooperativity factor between CP55,940 and the tested allosteric modulator (CB1 wild-type receptor [1]): 13.27

CCc1c(C(=O)NCCc2ccc(N3CCCCC3)cc2)oc2ccc(Cl)cc12 [13b, 5-Chloro-3-ethyl-N-(4-(piperidin-1-yl)phenethyl)benzofuran-2-carboxamide]
Concentration giving complete inhibition of CP55,940-induced [35S]GTPγS binding (CB1 wild-type receptor [4]): at least 10 μM | Effect on CP55,940-induced [35S]GTPγS binding in the presence of allosteric modulator (CB1 wild-type receptor [4]): Antagonizing | α: binding cooperativity factor between CP55,940 and the tested allosteric modulator (CB1 wild-type receptor [1]): 18.04

CCc1c(C(=O)NCCc2ccc(N(C)C)cc2)[nH]c2ccc(Cl)cc12 [11l, 5-Chloro-N-(4-(dimethylamino)phenethyl)-3-ethyl-1H-indole-2-carboxamide]
α: binding cooperativity factor between CP55,940 and the tested allosteric modulator (CB1 wild-type receptor [1]): 19.68

O=C(NCCc1ccc(N2CCCCC2)cc1)c1[nH]c2ccc(Cl)cc2c1-c1ccccc1 [11b, 5-Chloro-3-phenyl-N-(4-(piperidin-1-yl)phenethyl)-1H-indole-2-carboxamide]
α: binding cooperativity factor between CP55,940 and the tested allosteric modulator (CB1 wild-type receptor [1]): 1.0 | Solubility in organic solvents [5]: very poor solubility

CCCCCc1c(C(=O)NCCc2ccc(N(C)C)cc2)[nH]c2ccc(Cl)cc12 [11j, 5-Chloro-N-(4-(dimethylamino)phenethyl)-3-pentyl-1H-indole-2-carboxamide]
Concentration giving complete inhibition of CP55,940-induced [35S]GTPγS binding (CB1 wild-type receptor [4]): 1 µM | Effect on CP55,940-induced [35S]GTPγS binding in the presence of allosteric modulator (CB1 wild-type receptor [4]): Antagonizing | Concentration giving complete inhibition of basal [35S]GTPγS binding (CB1 wild-type receptor [4]; absence of orthosteric ligand, 5 μM GDP): 10 µM | α: binding cooperativity factor between CP55,940 and the tested allosteric modulator (CB1 wild-type receptor [1]): 16.55

CCCCCCC(C)(C)c1ccc([C@@H]2C[C@H](O)CC[C@H]2CCCO)c(O)c1 [CP55,940, 2-[(1R,2R,5R)-5-hydroxy-2-(3-hydroxypropyl)cyclohexyl]-5-(2-methyloctan-2-yl)phenol, reference compound]
Emax of CP55,940-induced [35S]GTPγS binding (CB1 wild-type receptor [4]; in the absence of allosteric modulator (11j), mean ± S.E.): 113.0 ± 2.6 fmol/mg

O=C(NCCc1ccc(N2CCCCC2)cc1)c1[nH]c2ccc(Cl)cc2c1Cc1ccccc1 [11c, 3-Benzyl-5-chloro-N-(4-(piperidin-1-yl)phenethyl)-1H-indole-2-carboxamide]
α: binding cooperativity factor between CP55,940 and the tested allosteric modulator (CB1 wild-type receptor [1]): 11.37 | Solubility in organic solvents [5]: very poor solubility

CCCCCCCc1c(C(=O)NCCc2ccc(N3CCCCC3)cc2)[nH]c2ccc(Cl)cc12 [11e]
α: binding cooperativity factor between CP55,940 and the tested allosteric modulator (CB1 wild-type receptor [1]): 7.38

O=C(NCCc1ccc(N2CCCCC2)cc1)c1[nH]c2ccc(Cl)cc2c1CC1CCCCC1 [11d, 5-Chloro-3-(cyclohexylmethyl)-N-(4-(piperidin-1-yl)phenethyl)-1H-indole-2-carboxamide]
α: binding cooperativity factor between CP55,940 and the tested allosteric modulator (CB1 wild-type receptor [1]): 9.84 | Solubility in organic solvents [5]: very poor solubility
